Tests used:
[1] = Test 4: Oral Absorption Ability Test (2); type: in vivo, mice (ICR, male)
Experimental: The compounds of Examples 62, 63 and 69 were orally administered to mice (ICR, male, n=3) in an amount of 0.5 mg (based on the weight of the compound of Example 62 from which the compounds of Examples 63 and 69 were derived)/0.2 ml/mouse as a 0.5% methylcellulose suspension, and then cilastatin was immediately administered subcutaneously in the same amount (because of the instability of the compound of Example 62 to mouse DHP-I, cilastatin as an inhibitor of DHP-I was used in combination). As a result, the compound of Example 62 was excreted in urine in 6%, 18% and 35% of bio-availability (BA) by 24 hours after the compounds of Examples 62, 63 and 69 were administered. The “BA” is a ratio of the recovery of a mother compound in urine when a test compound, i.e., a pro-drug of the mother compound , is orally administered to the recovery of the mother compound when the mother compound is administered intravenously. Some compounds were tested in the same manner as in Test 3 provided that 5%HCO60 was used instead of 0.5% methylcellulose suspension.

S. aureus 209P JC-1 = test: Test 1: Anti-Microbial Activities (MIC); type: cell-based; details: Staphylococcus aureus, Sensitivity Disk agar-N+5% Horse blood, inoculants 10^6 CFU/ml, read-out: minimum inhibiting concentrations (MIC)
Experimental: (§1) The minimum inhibiting concentrations (MIC, μg/ml) of the compounds according to the present invention to various pathogenic bacteria was measured in accordance with the method described in CHEMOTHERAPY, vol. 16, No. 1,99, 1968. The culture medium for measurement was Sensitivity Disk agar-N+5% Horse blood, and the amount of inoculants was 10^6 CFU/ml.

M. catarrhalis W-0500 = test: Test 1: Anti-Microbial Activities (MIC); type: cell-based; details: Moraxella catarrhalis, W0500, Sensitivity Disk agar-N+5% Horse blood, inoculants 10^6 CFU/ml, read-out: minimum inhibiting concentrations (MIC)
Experimental: as §1

E. faecalis W-73 = test: Test 1: Anti-Microbial Activities (MIC); type: cell-based; details: Enterococcus faecalis, W73, Sensitivity Disk agar-N+5% Horse blood, inoculants 10^6 CFU/ml, read-out: minimum inhibiting concentrations (MIC)
Experimental: as §1

S. aureus M126 = test: Test 1: Anti-Microbial Activities (MIC); type: cell-based; details: Staphylococcus aureus; S. aureus M126, methicillin-hyperresistant strain (MRSA); Sensitivity Disk agar-N+5% Horse blood; inoculants 10^6 CFU/ml; read-out: minimum inhibiting concentrations (MIC)
Experimental: as §1

H. influenzae PRC2 = test: Test 1: Anti-Microbial Activities (MIC); type: cell-based; details: Haemophilus influenzae, Sensitivity Disk agar-N+5% Horse blood, inoculants 10^6 CFU/ml, read-out: minimum inhibiting concentrations (MIC)
Experimental: as §1

S. pneumoniae PRC9 = test: Test 1: Anti-Microbial Activities (MIC); type: cell-based; details: Streptococcus pneumoniae; S. pneumoniae PRC9, penicillin-hyperresistant strain (PRSP); Sensitivity Disk agar-N+5% Horse blood; inoculants 10^6 CFU/ml; read-out: minimum inhibiting concentrations (MIC)
Experimental: as §1

E. hirae ATCC8043 = test: Test 1: Anti-Microbial Activities (MIC); type: cell-based; details: Enterococcus hirae, Sensitivity Disk agar-N+5% Horse blood, inoculants 10^6 CFU/ml, read-out: minimum inhibiting concentrations (MIC)
Experimental: as §1

K. pneumoniae PCI602 = test: Test 1: Anti-Microbial Activities (MIC); type: cell-based; details: Klebsiella pneumoniae, Sensitivity Disk agar-N+5% Horse blood, inoculants 10^6 CFU/ml, read-out: minimum inhibiting concentrations (MIC)
Experimental: as §1

P. vulgaris GN7919 = test: Test 1: Anti-Microbial Activities (MIC); type: cell-based; details: Proteus vulgaris, Sensitivity Disk agar-N+5% Horse blood, inoculants 10^6 CFU/ml, read-out: minimum inhibiting concentrations (MIC)
Experimental: as §1

C. freundii GN346 = test: Test 1: Anti-Microbial Activities (MIC); type: cell-based; details: Citrobacter freundii, Sensitivity Disk agar-N+5% Horse blood, inoculants 10^6 CFU/ml, read-out: minimum inhibiting concentrations (MIC)
Experimental: as §1

H. influenzae PRC44 = test: Test 1: Anti-Microbial Activities (MIC); type: cell-based; details: Haemophilus influenzae, Sensitivity Disk agar-N+5% Horse blood, inoculants 10^6 CFU/ml, read-out: minimum inhibiting concentrations (MIC)
Experimental: as §1

E. coli NIHJ JC-2 = test: Test 1: Anti-Microbial Activities (MIC); type: cell-based; details: Escherichia coli, NIHJJC2, Sensitivity Disk agar-N+5% Horse blood, inoculants 10^6 CFU/ml, read-out: minimum inhibiting concentrations (MIC)
Experimental: as §1

S. epidermidis ATCC14990 = test: Test 1: Anti-Microbial Activities (MIC); type: cell-based; details: Staphylococcus epidermidis, Sensitivity Disk agar-N+5% Horse blood, inoculants 10^6 CFU/ml, read-out: minimum inhibiting concentrations (MIC)
Experimental: as §1

[2] = Test 5: Acute Toxicity (i.v.); type: in vivo, mice (ICR, male)
Experimental: The compounds of Examples 44, 62, 88, and 111 were tested again in the same manner as the above provided that cilastatin sodium was co-administered.

porcine renal DHP-I = target: T1, porcine renal DHP-I (Sus scrofa, UniProt P22412); test: Test 2: stability against DHP-I (porcine); details: partly purified Porcine DHP-I, 100 μg (titer)/ml, 37° C., HPLC
T1 sequence (P22412 17-384): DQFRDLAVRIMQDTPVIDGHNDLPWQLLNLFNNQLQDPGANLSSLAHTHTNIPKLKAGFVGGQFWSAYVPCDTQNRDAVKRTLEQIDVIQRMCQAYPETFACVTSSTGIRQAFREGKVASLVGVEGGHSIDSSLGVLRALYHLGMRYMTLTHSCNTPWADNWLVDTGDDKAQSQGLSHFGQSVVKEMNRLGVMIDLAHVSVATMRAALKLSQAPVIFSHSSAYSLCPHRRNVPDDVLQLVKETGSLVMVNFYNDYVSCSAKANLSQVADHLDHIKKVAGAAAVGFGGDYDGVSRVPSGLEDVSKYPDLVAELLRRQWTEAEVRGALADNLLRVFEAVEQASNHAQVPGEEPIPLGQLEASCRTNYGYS

mouse DHP-I = target: T2, mouse DHP-I (Mus musculus, UniProt P31428); test: Test 2: stability against DHP-I (mouse)
T2 sequence (P31428 17-384): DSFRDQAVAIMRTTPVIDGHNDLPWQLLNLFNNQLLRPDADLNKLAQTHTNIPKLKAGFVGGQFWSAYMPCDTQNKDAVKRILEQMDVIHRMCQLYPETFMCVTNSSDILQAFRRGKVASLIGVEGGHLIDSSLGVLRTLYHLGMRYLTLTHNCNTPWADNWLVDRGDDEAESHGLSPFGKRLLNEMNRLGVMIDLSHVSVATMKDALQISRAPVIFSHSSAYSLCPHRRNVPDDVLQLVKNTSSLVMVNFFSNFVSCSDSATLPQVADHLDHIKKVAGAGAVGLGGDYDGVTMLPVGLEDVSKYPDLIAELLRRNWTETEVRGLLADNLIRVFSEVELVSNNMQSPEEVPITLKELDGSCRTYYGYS

[3] = solubility (remark in the acute toxicity test); type: physicochemical; details: reason for the lower i.v. dose

Row | Compound | bio-availability (BA): mother compound excreted in urine by 24 hours ([1]; mouse, in vivo, po) [%] | MIC (S. aureus 209P JC-1) [µg/mL] | MIC (M. catarrhalis W-0500) [µg/mL] | MIC (E. faecalis W-73) [µg/mL] | MIC (S. aureus M126) [µg/mL] | MIC (H. influenzae PRC2) [µg/mL] | MIC (S. pneumoniae PRC9) [µg/mL] | MIC (E. hirae ATCC8043) [µg/mL] | MIC (K. pneumoniae PCI602) [µg/mL] | MIC (P. vulgaris GN7919) [µg/mL] | MIC (C. freundii GN346) [µg/mL] | MIC (H. influenzae PRC44) [µg/mL] | MIC (E. coli NIHJ JC-2) [µg/mL] | MIC (S. epidermidis ATCC14990) [µg/mL] | also measured
1 | CSc1ncn2cc(C3=C(C(=O)OC(C)OC(=O)OCCC(C)C)N4C(=O)[C@H]([C@@H](C)O)[C@H]4[C@H]3C)sc12 (stereo partly drawn) [Example 273, 1-(3-Methyl-1-butyloxycarbonylbxy)ethyl (1S,5R,6S)-6-((1R)-1-hydroxyethyl)-1-methyl-2-(7-methylthioimidazo[5,1-b]thiazol-2-yl1)-1-carbapen-2-em-3-carboxylate] | 36 |  |  |  |  |  |  |  |  |  |  |  |  |  | 
2 | 1-Adamantylcarbonyloxymethyl (1S,5R,6S)-6-((1R)-1-hydroxyethyl)-methyl-2-(7-methylthio-imidazo[5,1-b]thiazol-2-yl)-1-carbapen-2-em-3-carboxylate [Example 250] | 39 |  |  |  |  |  |  |  |  |  |  |  |  |  | 
3 | C[C@@H](O)[C@H]1C(=O)N2C(C(=O)[O-])=C(c3cn4cnc(S(C)(=O)=O)c4s3)[C@H](C)[C@H]12.[Na+] [Example 62, Sodium (1S,5R,6S)-6-((1R)-1-Hydroxyethyl)-2-(7-methanesulfonylimidazo[5,1-b]thiazol-2-yl)-1-methyl-1-carbapen-2-em-3-carboxylate] |  | < 0.025 | < 0.025 | 0.2 | 1.56 | < 0.025 | 0.05 | 0.39 | 0.05 | 0.1 | 1.56 | 0.05 | 0.05 | < 0.025 | survival (acute toxicity) ([2]; mice, 2,000 mg/kg i.v.): All of the animal survived; survival (acute toxicity) ([2]; mice, 2,000 mg/kg i.v., cilastatin sodium co-administered): All of the animal survived; residual amounts (%) after 3 hours (porcine renal DHP-I): 64%; stability to mouse DHP-I (in words) (mouse DHP-I): instability; residual amounts (%) after 3 hours (mouse DHP-I; partly purified Mouse DHP-I, 100 μg (titer)/ml, 37° C., 3 hours, HPLC): 1.5%
4 | CSc1ncn2cc(C3=C(C(=O)OCOC(=O)c4ccccc4)N4C(=O)[C@H]([C@@H](C)O)[C@H]4[C@H]3C)sc12 [Example 253, Benzoylxymethyl (1S,5R,6S)-6-((1R)-1-hydroxyethyl)-1-methyl-2-(7-methylthioimidazo-[5,1-b]thiazol-2-yl)-1-carbapen-2-em-3-carboxylate] | 37 |  |  |  |  |  |  |  |  |  |  |  |  |  | 
5 | CSc1ncn2cc(C3=C(C(=O)[O-])N4C(=O)[C@H]([C@@H](C)O)[C@H]4[C@H]3C)sc12.[Na+] [Example 111, Sodium (1S,5R,6S)-6-((1R)-1-Hydroxyethyl)-1-methyl-2-(7-methylthioimidazo[5,1-b]thiazol-2-yl)-1-carbapen-2-em-3-carboxylate] |  | < 0.025 | < 0.025 | 0.2 | 1.56 | < 0.025 | 0.05 | 0.39 | 0.78 | 0.39 | 1.56 | 0.05 | 0.78 | < 0.025 | solubility [3]: limited solubility; survival (acute toxicity) ([2]; mice, 1,500 mg/kg i.v.): All of the animal survived; survival (acute toxicity) ([2]; mice, 1,500 mg/kg i.v., cilastatin sodium co-administered): All of the animal survived
6 | CC(C)C1CC[C@H](C)CC1OC(=O)OCOC(=O)C1=C(c2cn3cnc(S(C)(=O)=O)c3s2)[C@H](C)[C@@H]2[C@@H]([C@@H](C)O)C(=O)N12 (stereo partly drawn) [Example 218, (1S,2R,5s)-(d)-Menthyloxycarbonyloxymethyl (1S,5R,6S)-6-((1R)-1-hydroxyethyl)-2-(7-methanesulfonylimidazo[5,1-b]thiazol2-yl)-1-methyl-1-carbapen-2-em-3-carboxylate] |  |  |  |  |  |  |  |  |  |  |  |  |  |  | bio-availability (BA): mother compound excreted in urine by 24 hours ([1]; mice, oral, same as Test 3 but 5%HCO60 instead of 0.5% methylcellulose suspension): 26%
